In one series the target is Carbonic anhydrase 2 (Homo sapiens, UniProt P00918). In words: DRUGMATRIX: Carbonic Anhydrase II enzyme inhibition (substrate: 4-Nitrophenyl acetate (4-NPA)). The series is classed as tissue-based, Erythrocyte. The note with it: erythrocyte; Not Active = under 50% inhibition at 10 µM.
Series [1] has as its target C-C chemokine receptor type 5 (Homo sapiens, UniProt P51681). It counts as cell membranes, Membrane. The note with it: hek293. Note: in other assays of this panel Not Active means under 50% inhibition at 10 µM.
A further series has as its target T1, D(4) dopamine receptor (Homo sapiens, UniProt P21917).
T1 sequence (P21917 whole entry): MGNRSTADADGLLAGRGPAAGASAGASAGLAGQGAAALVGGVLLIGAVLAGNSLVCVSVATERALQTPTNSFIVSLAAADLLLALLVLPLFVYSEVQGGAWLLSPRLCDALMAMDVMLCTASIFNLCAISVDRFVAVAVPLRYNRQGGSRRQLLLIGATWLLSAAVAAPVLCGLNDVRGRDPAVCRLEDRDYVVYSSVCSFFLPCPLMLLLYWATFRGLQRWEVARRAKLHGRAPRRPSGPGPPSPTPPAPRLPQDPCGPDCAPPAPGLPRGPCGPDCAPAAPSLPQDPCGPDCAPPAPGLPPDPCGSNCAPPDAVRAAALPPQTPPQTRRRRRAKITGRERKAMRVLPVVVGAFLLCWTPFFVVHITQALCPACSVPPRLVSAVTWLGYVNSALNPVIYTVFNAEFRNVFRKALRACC
In words: DRUGMATRIX: Dopamine D4.2 radioligand binding (ligand: [3H] Spiperone). The series is classed as cell membranes, CHO-K1, Membrane. The note with it: cho-k1; Not Active = under 50% inhibition at 10 µM.

The nature of series [2]: DRUGMATRIX: Phosphodiesterase PDE4 enzyme inhibition (substrate: [3H]cAMP + cAMP). The note with it: u-937; Not Active = under 50% inhibition at 10 µM.
The nature of series [3]: DRUGMATRIX: Platelet-Derived Growth Factor (PDGF) radioligand binding (ligand: [125I] PDGF). The series is classed as cell-based. The note with it: nih3t3; Not Active = under 50% inhibition at 10 µM.
For the next series, the target named is T2, Progesterone receptor (Bos taurus, UniProt Q690N0).
T2 sequence (Q690N0 whole entry): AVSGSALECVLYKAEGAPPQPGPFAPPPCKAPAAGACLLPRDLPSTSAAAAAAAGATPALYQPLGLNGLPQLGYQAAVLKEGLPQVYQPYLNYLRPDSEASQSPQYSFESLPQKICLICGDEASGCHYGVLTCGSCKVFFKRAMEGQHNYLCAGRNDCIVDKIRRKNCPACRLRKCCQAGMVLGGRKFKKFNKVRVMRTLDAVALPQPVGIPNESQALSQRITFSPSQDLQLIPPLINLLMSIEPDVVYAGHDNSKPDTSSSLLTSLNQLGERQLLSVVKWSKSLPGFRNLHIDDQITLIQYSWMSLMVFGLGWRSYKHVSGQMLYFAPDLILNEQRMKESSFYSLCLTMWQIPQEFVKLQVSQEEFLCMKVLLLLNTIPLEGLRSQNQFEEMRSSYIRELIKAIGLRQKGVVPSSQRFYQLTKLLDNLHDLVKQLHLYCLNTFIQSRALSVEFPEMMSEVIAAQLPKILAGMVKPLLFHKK
The series can be described thus: DRUGMATRIX: Progesterone radioligand binding (ligand: [3H] R-5020). The note with it: Not Active = under 50% inhibition at 10 µM. The series is classed as tissue-based, Uterus.

Series [4] deals with Voltage-gated inwardly rectifying potassium channel KCNH2 (Homo sapiens, UniProt Q12809). The note with it: hek293.

SMILES strings stand for the structures.

Usually IC50 stands for the midpoint of a concentration-inhibition curve. For orientation: Ki means a measure of affinity in units of concentration, obtained from inhibition or displacement.

C-C chemokine receptor type 5, sequence (P51681 whole entry): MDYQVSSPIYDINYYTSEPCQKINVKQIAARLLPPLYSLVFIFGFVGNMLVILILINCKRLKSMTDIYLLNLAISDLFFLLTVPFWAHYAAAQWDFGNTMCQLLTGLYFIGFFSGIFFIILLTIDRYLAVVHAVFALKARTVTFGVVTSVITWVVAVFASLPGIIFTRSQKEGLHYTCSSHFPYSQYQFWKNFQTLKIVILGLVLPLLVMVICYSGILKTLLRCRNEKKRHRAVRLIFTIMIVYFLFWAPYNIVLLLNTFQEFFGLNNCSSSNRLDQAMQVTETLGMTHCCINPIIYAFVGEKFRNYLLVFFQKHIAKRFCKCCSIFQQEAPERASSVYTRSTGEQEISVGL
Voltage-gated inwardly rectifying potassium channel KCNH2, sequence (Q12809 whole entry): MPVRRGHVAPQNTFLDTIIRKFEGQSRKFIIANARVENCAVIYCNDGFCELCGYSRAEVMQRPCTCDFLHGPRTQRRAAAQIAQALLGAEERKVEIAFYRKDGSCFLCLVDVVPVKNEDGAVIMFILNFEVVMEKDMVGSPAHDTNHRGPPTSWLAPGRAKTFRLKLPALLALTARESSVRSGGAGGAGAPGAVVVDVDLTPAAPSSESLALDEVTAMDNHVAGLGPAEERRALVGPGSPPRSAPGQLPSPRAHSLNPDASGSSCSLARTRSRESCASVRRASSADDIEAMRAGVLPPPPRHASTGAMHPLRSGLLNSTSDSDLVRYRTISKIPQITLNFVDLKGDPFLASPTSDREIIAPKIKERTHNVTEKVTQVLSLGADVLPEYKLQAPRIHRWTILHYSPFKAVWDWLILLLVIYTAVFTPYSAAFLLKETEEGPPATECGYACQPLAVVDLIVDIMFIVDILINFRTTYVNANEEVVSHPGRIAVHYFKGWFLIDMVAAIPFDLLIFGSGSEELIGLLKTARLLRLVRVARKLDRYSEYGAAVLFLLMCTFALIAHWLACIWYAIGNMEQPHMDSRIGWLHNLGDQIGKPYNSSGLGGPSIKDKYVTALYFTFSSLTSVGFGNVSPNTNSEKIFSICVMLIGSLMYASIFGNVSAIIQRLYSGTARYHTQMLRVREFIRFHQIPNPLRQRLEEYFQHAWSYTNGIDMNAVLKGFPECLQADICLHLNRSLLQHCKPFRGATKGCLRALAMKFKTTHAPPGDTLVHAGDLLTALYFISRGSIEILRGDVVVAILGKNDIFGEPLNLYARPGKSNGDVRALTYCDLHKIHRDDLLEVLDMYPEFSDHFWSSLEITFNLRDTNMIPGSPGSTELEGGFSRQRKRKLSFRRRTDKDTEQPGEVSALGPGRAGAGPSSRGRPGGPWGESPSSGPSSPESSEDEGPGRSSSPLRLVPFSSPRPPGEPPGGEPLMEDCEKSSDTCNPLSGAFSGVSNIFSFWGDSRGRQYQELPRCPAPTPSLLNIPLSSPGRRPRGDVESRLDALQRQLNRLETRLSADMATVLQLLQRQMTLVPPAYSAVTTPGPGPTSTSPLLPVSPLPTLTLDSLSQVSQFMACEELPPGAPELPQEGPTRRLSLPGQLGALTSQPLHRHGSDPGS

Take `CN1CCN(C(c2ccccc2)c2ccccc2)CC1` [CYCLIZINE]: the IC50 result (on Carbonic anhydrase 2; in series [1]; on D(4) dopamine receptor; in series [2]; in series [3]; on Progesterone receptor) was “Not Active” each time. Further, the IC50 entry in series [4] was “Not Active”. For the same compound, the Ki entry in series [2], in series [3] and in series [4] was “Not Active” each time.
`CN1C[C@@H]2C[C@H]1CN2c1cc2c(cc1F)c(=O)c(C(=O)O)cn2C1CC1` [DANOFLOXACIN]: the IC50 entry (against Carbonic anhydrase 2; in series [1]; on D(4) dopamine receptor; in series [2]; in series [3]; on Progesterone receptor) was “Not Active” in each case. Also, in series [4], the IC50 entry was “Not Active”. The Ki entry in series [2], in series [3] and in series [4] was “Not Active” each time.
On to `COc1cccc2c1C(=O)c1c(O)c3c(c(O)c1C2=O)C[C@@](O)(C(C)=O)C[C@@H]3O[C@H]1C[C@H](N)[C@H](O)[C@H](C)O1` [DAUNORUBICIN], for which the IC50 entry (against Carbonic anhydrase 2; in series [1]; at D(4) dopamine receptor; in series [2]; in series [3]; at Progesterone receptor) was “Not Active” throughout. Besides, the IC50 entry in series [4] was “Not Active”. For the same compound, the Ki entry in series [2], in series [3] and in series [4] was “Not Active” throughout.
Consider `O=C(O)c1cc(-c2ccc(F)cc2F)ccc1O` [DIFLUNISAL], for which the IC50 entry (at Carbonic anhydrase 2; in series [1]; at D(4) dopamine receptor; in series [2]; in series [3]; on Progesterone receptor) was “Not Active” each time. The IC50 result in series [4] is recorded as “Not Active”. The Ki entry in series [2], in series [3] and in series [4] was “Not Active” in each case.
With `C[S+](C)[O-]` [DIMETHYL SULFOXIDE], the IC50 result (against Carbonic anhydrase 2; in series [1]; on D(4) dopamine receptor; in series [2]; in series [3]; on Progesterone receptor) was “Not Active” in each case. In addition, the IC50 entry in series [4] is reported as “Not Active”. Besides, the Ki result in series [2], in series [3] and in series [4] was “Not Active” in each case.
Take `CC1=NN(c2ccccc2)C(=O)C1` [EDARAVONE]: the IC50 entry (against Carbonic anhydrase 2; in series [1]; at D(4) dopamine receptor; in series [2]; in series [3]; on Progesterone receptor) was “Not Active” throughout. In series [4], the IC50 entry is on record as “Not Active”. The Ki result in series [2], in series [3] and in series [4] was “Not Active” in each case.
Take `CC(C)C[C@H]1C(=O)N2CCC[C@H]2[C@]2(O)O[C@](NC(=O)[C@@H]3C=C4c5cccc6[nH]cc(c56)C[C@H]4N(C)C3)(C(C)C)C(=O)N12` [ERGOCRYPTINE]: the IC50 entry (on Carbonic anhydrase 2; in series [1]; at D(4) dopamine receptor; in series [2]; in series [3]; on Progesterone receptor) was “Not Active” each time. For the same compound, the IC50 result in series [4] is given as “Not Active”. Also, the Ki result in series [2], in series [3] and in series [4] was “Not Active” throughout.
`C[C@]12CC[C@@H]3c4ccc(O)cc4CC[C@H]3[C@@H]1C[C@@H](O)[C@@H]2O` [ESTRIOL]: the half-maximal inhibitory concentration (IC50) entry (against Carbonic anhydrase 2; in series [1]; at D(4) dopamine receptor; in series [2]; in series [3]; at Progesterone receptor) was “Not Active” in each case. The IC50 entry in series [4] is given as “Not Active”. For the same compound, the Ki result in series [2], in series [3] and in series [4] was “Not Active” in each case.
On to `CN1CCN(c2c(F)cc3c(=O)c(C(=O)O)cn(CCF)c3c2F)CC1` [FLEROXACIN], for which the IC50 entry (at Carbonic anhydrase 2; in series [1]; on D(4) dopamine receptor; in series [2]; in series [3]; on Progesterone receptor) was “Not Active” throughout. For the same compound, the IC50 entry in series [4] is given as “Not Active”. For the same compound, the Ki entry in series [2], in series [3] and in series [4] was “Not Active” throughout.
With `O=c1[nH]c(=O)n([C@H]2C[C@H](O)[C@@H](CO)O2)cc1F` [FLOXURIDINE], the IC50 result (on Carbonic anhydrase 2; in series [1]; at D(4) dopamine receptor; in series [2]; in series [3]; on Progesterone receptor) was “Not Active” in each case. In addition, the IC50 result in series [4] is recorded as “Not Active”. For the same compound, the Ki entry in series [2], in series [3] and in series [4] was “Not Active” each time.
On to `COC(=O)Nc1nc2cc(C(=O)c3ccc(F)cc3)ccc2[nH]1` [FLUBENDAZOLE], for which the IC50 entry (on Carbonic anhydrase 2; in series [1]; at D(4) dopamine receptor; in series [2]; in series [3]; on Progesterone receptor) was “Not Active” each time. Also, the IC50 result in series [4] is on record as “Not Active”. Also, the Ki entry in series [2], in series [3] and in series [4] was “Not Active” each time.
As to `CC(=O)OCC(=O)[C@@]1(O)CC[C@H]2[C@@H]3CCC4=CC(=O)CC[C@]4(C)[C@@]3(F)[C@@H](O)C[C@@]21C` [FLUDROCORTISONE ACETATE], the IC50 entry (on Carbonic anhydrase 2; in series [1]; on D(4) dopamine receptor; in series [2]; in series [3]; on Progesterone receptor) was “Not Active” throughout. In addition, the IC50 entry in series [4] is given as “Not Active”. Moreover, the Ki result in series [2], in series [3] and in series [4] was “Not Active” each time.
`CCOC(=O)c1ncn2c1CN(C)C(=O)c1cc(F)ccc1-2` [FLUMAZENIL]: the IC50 result (on Carbonic anhydrase 2; in series [1]; on D(4) dopamine receptor; in series [2]; in series [3]; on Progesterone receptor) was “Not Active” in each case. Also, the IC50 entry in series [4] is on record as “Not Active”. For the same compound, the Ki result in series [2], in series [3] and in series [4] was “Not Active” in each case.
For the compound `CC(=O)OCC(=O)[C@@]12OC(C)(C)O[C@@H]1C[C@H]1[C@@H]3C[C@H](F)C4=CC(=O)C=C[C@]4(C)[C@@]3(F)[C@@H](O)C[C@@]12C` [FLUOCINONIDE], the IC50 result was “Not Active” against Carbonic anhydrase 2; “Not Active” in series [1]; “Not Active” at D(4) dopamine receptor; “Not Active” in series [2]; “Not Active” in series [3]; 22 nM on Progesterone receptor (read-out: IC50). Further, in series [4], the IC50 entry is “Not Active”. The Ki entry in series [2] was “Not Active”; in series [3], “Not Active”; at Progesterone receptor (read-out: Ki), 2.9 nM; in series [4], “Not Active”.
With `O=C(O)P(=O)(O)O` [FOSCARNET], the IC50 entry (on Carbonic anhydrase 2; in series [1]; at D(4) dopamine receptor; in series [2]; in series [3]; at Progesterone receptor) was “Not Active” in each case. Besides, the IC50 result in series [4] is “Not Active”. Also, the Ki result in series [2], in series [3] and in series [4] was “Not Active” throughout.
With `Cc1ccc(C)c(OCCCC(C)(C)C(=O)O)c1` [GEMFIBROZIL], the IC50 result (against Carbonic anhydrase 2; in series [1]; at D(4) dopamine receptor; in series [2]; in series [3]; at Progesterone receptor) was “Not Active” throughout. Further, in series [4], the IC50 result is given as “Not Active”. For the same compound, the Ki result in series [2], in series [3] and in series [4] was “Not Active” in each case.
